Source: article PMC5730616, “Inhibition of human kynurenine aminotransferase isozymes by estrogen and its derivatives” (Scientific Reports, 2017)
Several values for one entry are separate records, joined by “and”; a condition that tells them apart may be missing. Equal values may be shown once. Where a name gives a salt, the structure may show the parent alone. Read-outs that look alike come from different tables or passages of the source.

Columns and labels:
human KAT-I = target: T1, human KAT-I (Homo sapiens, UniProt Q16773); test: HPLC inhibition assay on recombinant human KAT-I (KYNA production); assay type: biochemical
T1 sequence (Q16773 1-422): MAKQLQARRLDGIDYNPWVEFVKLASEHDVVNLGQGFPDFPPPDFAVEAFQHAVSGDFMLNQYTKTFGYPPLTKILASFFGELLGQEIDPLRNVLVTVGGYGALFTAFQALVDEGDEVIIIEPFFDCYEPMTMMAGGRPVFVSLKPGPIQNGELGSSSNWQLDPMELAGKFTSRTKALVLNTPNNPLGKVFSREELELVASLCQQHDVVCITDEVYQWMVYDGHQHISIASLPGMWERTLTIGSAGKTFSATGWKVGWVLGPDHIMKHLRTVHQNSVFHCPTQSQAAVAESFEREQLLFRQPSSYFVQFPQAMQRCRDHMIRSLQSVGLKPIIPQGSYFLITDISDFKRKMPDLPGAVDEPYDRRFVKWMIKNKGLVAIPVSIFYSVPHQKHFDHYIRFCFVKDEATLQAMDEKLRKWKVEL
Description: The KAT inhibition assay was based on that described previously[35]. 0.7 µg of KAT-I or KAT-II was incubated at 37 °C for 10 minutes in a 50 µL reaction mixture containing PLP (50 µM), α-ketoglutarate (5 mM), L-KYN (5 mM) in PBS, pH 7.4, and the inhibitor studied (1–2000 µM). Following incubation, the reaction was terminated by adding formic acid (0.8 M) in a 1:1 ratio. 50 µL of the mixture was transferred into a vial with 950 µL of water for HPLC analysis.

KAT-II [1] = target: T2, KAT-II (Homo sapiens, UniProt Q8N5Z0); test: HPLC inhibition assay on recombinant human KAT-II (KYNA production); assay type: biochemical
T2 construct: made in house
T2 sequence (Q8N5Z0 30-425): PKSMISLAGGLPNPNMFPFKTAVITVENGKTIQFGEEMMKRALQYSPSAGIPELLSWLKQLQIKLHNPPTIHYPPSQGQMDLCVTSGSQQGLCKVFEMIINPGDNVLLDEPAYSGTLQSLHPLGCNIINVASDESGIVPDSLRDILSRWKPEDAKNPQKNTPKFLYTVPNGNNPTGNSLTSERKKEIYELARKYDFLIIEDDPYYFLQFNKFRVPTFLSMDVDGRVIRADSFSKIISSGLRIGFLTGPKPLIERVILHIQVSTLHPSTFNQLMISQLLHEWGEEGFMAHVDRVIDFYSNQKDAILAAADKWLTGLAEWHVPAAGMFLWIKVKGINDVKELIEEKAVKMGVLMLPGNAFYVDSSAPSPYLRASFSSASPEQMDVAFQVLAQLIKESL
Description: GraphPad Prism v7.02 software[59] was used to develop a nonlinear regression fit of the data collected in the inhibition assays. The IC50 is reported with the standard error.
The expression and purification of recombinant KAT-I and KAT-II protein was completed as previously described[60],[61].
The KAT inhibition assay was based on that described previously. […] Following incubation, the reaction was terminated by adding formic acid (0.8 M) in a 1:1 ratio. 50 µL of the mixture was transferred into a vial with 950 µL of water for HPLC analysis.
The production of KYNA was measured using HPLC with UV detection at a wavelength of 330 nm, using a C18 reverse-phase column, and 50% (v/v) water and 50% (v/v) methanol mobile phase. The data was collected in triplicate.

KAT-II [2] = target: T2, KAT-II; parameters: method as in PMID 27367665; settings: previously measured; cited from earlier work
KAT-II [3] = target: T2, KAT-II; parameters: method as in PMID 27367665; settings: SPR, chi^2 0.34; cited from earlier work
KAT-II [4] = target: T2, KAT-II; test: Surface plasmon resonance binding assay, steady state affinity model; settings: KAT-II on CM5 chip, 25 °C, chi^2 0.481
Description: SPR was employed to evaluate the binding profile of estradiol disulfate on KAT-II. KAT-II was bound to a CM5 chip by amine coupling (achieving approximately 8000 RU). […] Due to the nature of this interaction, kinetic analyses could not be performed to directly evaluate the association and dissociation rate constants.
SPR binding affinity measurements were performed using the Biacore T200 with a CM5 sensor chip (GE Healthcare Life Sciences, Sydney, Australia). The experiment was prepared and obtained with the Biacore T200 Control Software, and analysed with the Biacore T200 Evaluation Software.
Prior to performing the SPR experiments, the solutions were filter sterilised for 10 min at 25 °C. KAT-II was diluted to a concentration of 350 µg/mL using sodium acetate (pH 4.5). The Biacore T200 compartment temperature was controlled at 25 °C and the flow rate was set to 10 µL/min. Using a 1:1 mixture of EDC (400 mM) and sulfo-NHS (100 mM), two flow cells on a CM5 sensor chip (containing a carboxymethylated dextran surface) were activated. Flow cell one contained a blank immobilisation (PBST buffer injection) and flow cell two had the prepared KAT-II sample injected. The two flow cells were deactivated using an injection of 1 M ethanolamine.
The analyte, estradiol disulfate, was prepared in running buffer (PBST with 5% DMSO) in a concentration series from 170 nM-43750 nM. […]

[5] = recombinant human KAT-I, inhibitor 1–2000 µM, read-out: IC50 on KAT-I
[6] = recombinant human KAT-II, inhibitor 1–2000 µM, read-out: IC50 on KAT-II

SMILES: C[C@]12CCC3c4ccc(OS(=O)(=O)O)cc4CCC3C1CCC2=O (stereo partly drawn) [estrone sulfate, estrone sulfate potassium salt]
- IC50 (human KAT-I; [5]): > 2000 µM
- IC50 (KAT-II [1]; [6]): > 2000 µM and ~2000 µM

SMILES: C[C@]12CC[C@@H]3c4ccc(O)cc4CC[C@H]3[C@@H]1CC[C@@H]2O [estradiol, reference compound]
- IC50 (human KAT-I): > 2000 µM
- IC50 (KAT-II [1]): > 2000 µM

SMILES: C[C@]12CCC3c4ccc(OS(=O)(=O)O)cc4CCC3C1CC[C@@H]2O (stereo partly drawn) [estradiol 3-sulfate, estradiol 3-sulfate sodium salt]
- IC50 (human KAT-I; [5]): > 2000 µM
- IC50 (KAT-II [1]; [6]): > 2000 µM

SMILES: CC1COc2c(N3CCN(N)CC3)c(F)cc3c(=O)c(C(=O)O)cn1c23 (stereo not drawn) [BFF-122]
- IC50 (KAT-II [2]): 15 to 20 µM

SMILES: O=C(O)C(Cc1ccccc1)N1C(=O)c2cc(Cl)c(Cl)cc2C1=O (stereo not drawn) [NS-1502]
- IC50 (KAT-II [2]): 315 µM
- Kd (KAT-II [3]): 7.2 µM

SMILES: NC1Cc2ccccc2N(O)C1=O (stereo not drawn) [PF-04859989, reference compound]
- IC50 (KAT-II [2]): 1 to 3 µM

SMILES: C[C@]12CC[C@@H]3c4ccc(OS(=O)(=O)O)cc4CC[C@H]3[C@@H]1CC[C@@H]2OS(=O)(=O)O [estradiol disulfate, estradiol 3,17-disulfate dipotassium salt]
- Kd (KAT-II [4]): 5.05 µM
- IC50 (human KAT-I; recombinant human KAT-I, PLP 50 µM, L-KYN 5 mM, 37 °C 10 min, ± standard error, read-out: IC50 on KAT-I): 292 µM
- Increase of inhibition compared to estradiol (KAT-II [1]; KAT-I and KAT-II inhibition assays, attributed to the 17-sulfate moiety): 10–100 fold
- IC50 (KAT-II [1]; recombinant human KAT-II, PLP 50 µM, L-KYN 5 mM, 37 °C 10 min, ± standard error, read-out: IC50 on KAT-II): 26.3 µM
- Reversibility of KAT-II inhibition (KAT-II [1]; shown by varying PLP concentration in the reaction mixture): reversible
